Laboratory results published in patent US20230310374A1, “COMPOSITIONS AND METHODS FOR TREATING HEADACHE OR FACIAL PAIN” (priority 2021, published 2023).
Where two headings read alike, the source gives them in different places.

How the values were obtained:
mice [1] = conditions: cited from earlier work
humans = conditions: cited from earlier work
Human 5-HT1B receptor = target: T1, Human 5-HT1B receptor (Homo sapiens, UniProt P28222); experiment: Hit Hunter cAMP secondary messenger assay, Gi agonist mode; format: cell-based; conditions: for Emax / Curve Top (% activation): relative to 5-HT MAX control
T1 construct: host or cells: CHO-K1 (hamster), stably transfected; cAMP Hunter cell line
T1 sequence (P28222 whole entry): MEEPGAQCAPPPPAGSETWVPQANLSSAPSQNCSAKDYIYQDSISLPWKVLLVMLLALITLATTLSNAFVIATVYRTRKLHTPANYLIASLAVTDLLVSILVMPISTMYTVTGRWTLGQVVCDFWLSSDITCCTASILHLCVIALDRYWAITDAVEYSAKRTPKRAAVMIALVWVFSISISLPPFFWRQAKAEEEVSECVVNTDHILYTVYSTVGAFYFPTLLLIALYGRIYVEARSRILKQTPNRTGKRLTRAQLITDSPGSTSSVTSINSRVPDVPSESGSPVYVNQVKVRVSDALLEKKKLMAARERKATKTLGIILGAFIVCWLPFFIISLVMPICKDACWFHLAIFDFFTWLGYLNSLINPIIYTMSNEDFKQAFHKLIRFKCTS
Source text: Methods: cAMP Secondary Messenger Pathway Assay Method.
Hit Hunter® cAMP assays were used to monitor the activation of a GPCR via Gi and Gs secondary messenger signaling in a homogenous, non-imaging assay format using DiscoverX's Enzyme Fragment Complementation (EFC) with β-galactosidase (β-Gal) as the functional reporter. The enzyme is split into two complementary portions: EA for Enzyme Acceptor and ED for Enzyme Donor. ED is fused to cAMP and in the assay competes with cAMP generated by cells for binding to a cAMP-specific antibody. Active β-Gal is formed by complementation of exogenous EA to any unbound EDcAMP.
cAMP Hunter cell lines were expanded from freezer stocks according to standard procedures. Human 5-HT1B receptor-mediated cAMP signaling was evaluated in stably transfected hamster-derived CHO-K1 cells. Cells were seeded in a total volume of 20 μL into white walled, 384-well microplates and incubated at 37° C. overnight. cAMP modulation was determined using the DiscoverX HitHunter cAMP XS+ assay.
For Gi agonist determination, cells were incubated with sample in the presence of 15 mM forskolin to induce response. Media was aspirated from cells and replaced with 10 μL HBSS/10 mM Hepes. Intermediate dilution of sample stocks was performed to generate 4× sample in assay buffer. 5 μL of 4× sample plus 5 μL of 4× forskolin was added to cells and incubated at 37° C. for 30 minutes. Final assay vehicle concentration was 1%. After compound incubation, assay signal was generated through incubation with 20 μL cAMP XS+ED/CL lysis cocktail for one hour followed by incubation with 20 μL cAMP XS+EA reagent for three hours at room temperature. Microplates were read following signal generation with a PerkinElmer Envision™ instrument for chemiluminescent signal detection.
Compound activity was analyzed using CBIS data analysis suite (ChemInnovation, CA). For Gi agonist mode assays, percentage activity is calculated using the following formula: % Activity=100%×(1−(mean RLU of test sample−mean RLU of MAX control)/(mean RLU of vehicle control−mean RLU of MAX control)).
The same human 5-HT1B receptor functional agonism assay as described above was used in a separate experiment.

[2] = test system: female mice exposed to stress and sodium nitroprusside (SNP); experiment: Stress plus sodium nitroprusside (SNP)-induced migraine mice model, von Frey facial withdrawal score; format: in vivo, C57BL/6j mice
Experimental: To evaluate the prophylactic and acute/abortive treatment effects of single administration of 5-OH-DMT to female mice exposed to stress and sodium nitroprusside (SNP) as a model of stress-primed migraine pain.
C57BL/6j mice (7-8 weeks, female) were acclimated for 1 week prior to the experiment. Mice were kept in groups of 4-5 animals per cage in a housing room with temperature maintained at 21-23° C. and 40-70% relative humidity, on a 12/12 h light:dark cycle. Chow and water were available ad libitum except during testing. […] On Day 10, von Frey testing was conducted again to confirm that mechanical withdrawal scores were similar across naïve and stress-exposed mice. Stress-exposed animals were randomized to treatment groups based on body weight and facial mechanical withdrawal score. Then, each animal was administered a 1st intraperitoneal (i.p.) injection of 5-OH-DMT (dissolved in 0.9% sterile saline and administered at 3, 10 or 30 mg/kg in a volume of 10 ml/kg) or vehicle.
On Day 11, at 24 h following the 1st injection, vehicle or 0.1 mg/kg sodium nitroprusside (SNP) was given i.p. and facial mechanical withdrawal scores were assessed 3 hours later to confirm establishment of a stress+SNP-induced hypersensitive state in Day 10 vehicle-treated animals (Groups 2-6) or, in Day 10 test article-treated […] (Groups 7-9), assess the prophylactic effect of compound administration. On Day 12, at 23 hours after vehicle or SNP injection, each animal was administered a 2nd i.p. injection of vehicle or 5-OH-DMT or sumatriptan (acute treatment positive control animals received vehicle on Day 10). One hour later, facial withdrawal scores were assessed to evaluate acute effects of treatments (Groups 2-6) or durability of prophylactic effects (Groups 7-9).
Mice were allowed to acclimate to the testing cage for 60 minutes each day before the test. To assess pain-like behaviors induced by noxious mechanical stimulation applied on the vibrissal pad (orofacial area), the mouse was placed in a small cage with a metal mesh ceiling and a wood bottom (10 cm×5 cm×5 cm). The semiparametric scoring system used to evaluate the response of the animal to the mechanical stimulation was described in detail by Vos et al. (1994). Mechanical stimulation delivered by a von Frey hair with the bending force of 0.07 g was applied bilaterally to the vibrissal pad. […] The summated score of these 8 trials was counted as the animal's response score. […]

mice [3] = conditions: cited from earlier work; remark: listed apart in the source
rats = conditions: cited from earlier work

Structure (SMILES): CN(C)CCc1c[nH]c2ccc(O)cc12 [5-OH-DMT, 5-hydroxy-N,N-dimethyltryptamine]
- acute anti-inflammatory and analgesic effects (mice [1]): exhibited acute anti-inflammatory and analgesic effects
- duration of short-lived aftereffects (humans; insufflation of 40 mg): up to 90 minutes
- time of initial effects (humans; insufflation of 40 mg): 5 min
- EC50 (Human 5-HT1B receptor): ≤ 1 nM
- Emax (Human 5-HT1B receptor; Study #1, read-out: Maximal activation (%)): 104%
- Curve Top (% activation) (Human 5-HT1B receptor; Study #2): 100.41%
- agonist activity at human 5-HT1B receptors (Human 5-HT1B receptor; first experiment (Study #1)): full agonist activity
- Emax (Human 5-HT1B receptor; read-out: Maximal activation (%), Study #2): 96.7%
- agonist activity at human 5-HT1B receptors (Human 5-HT1B receptor; second experiment (Study #2)): full agonist activity
- facial hypersensitivity vs vehicle (G2), prophylactic treatment ([2]; 30 mg/kg i.p. on Day 10, 24 h before SNP, tested Day 11, 3 h after SNP (G9)): significantly reduced facial hypersensitivity
- facial hypersensitivity vs vehicle (G2), durability of prophylactic effect ([2]; 30 mg/kg i.p. on Day 10, tested Day 12 (G9)): significantly reduced facial hypersensitivity
- facial hypersensitivity vs vehicle (G2), acute treatment ([2]; 30 mg/kg i.p. on Day 12, tested 1 h after injection #2 (G6)): significantly reduced facial hypersensitivity
- head twitch response ED50 (mice [3]; mice, subcutaneous): 15 mg/kg

Structure (SMILES): NCCc1c[nH]c2ccc(O)cc12 [5-HT, serotonin, reference compound]
- Curve Top (% activation) (Human 5-HT1B receptor; Study #1): 100.22%
- Curve Top (% activation) (Human 5-HT1B receptor; Study #2): 107.54%
- agonist activity at human 5-HT1B receptors (Human 5-HT1B receptor; first experiment (Study #1)): full agonist activity
- agonist activity at human 5-HT1B receptors (Human 5-HT1B receptor; second experiment (Study #2)): full agonist activity

Structure (SMILES): CNS(=O)(=O)Cc1ccc2[nH]cc(CCN(C)C)c2c1 [sumatriptan, reference compound]
- facial hypersensitivity vs vehicle (G2), acute treatment ([2]; sumatriptan 1 mg/kg i.p. on Day 12, tested 1 h after injection #2 (G3)): significantly reduced facial hypersensitivity

Structure (SMILES): COc1ccc2[nH]cc(CCN(C)C)c2c1 [5-MeO-DMT, 5-methoxy-N,N-dimethyltryptamine]
- time of initial effects (humans; insufflation of 10 mg): 3 to 4 min
- time of termination of effects (humans; insufflation of 10 mg): 60 to 70 min
- dose range with psychoactive effects (humans; intravenous): 0.25 to 3.1 mg
- dose with psychoactive effects (humans; oral, after pretreatment with a monoamine oxidase inhibitor (e.g., harmaline)): 10 to 25 mg
- dose with psychoactive effects (humans; oral, encapsulated): 30 mg
- dose range with psychoactive effects (humans; smoked): 6 to 30 mg
- dose with psychoactive effects (humans; sublingual): ~10 mg
- acute analgesic effects (rats): exhibited acute analgesic effects
- head twitch response in mice (mice [3]; indicative of in vivo 5-HT2A receptor activation): induces the head twitch response
- dose eliciting mouse head-twitch response (mice [3]; mice, i.p. or s.c.): ≥ 10 mg/kg
